Results as given in US10308607B2, “Fucosidase inhibitors” (HORIZON ORPHAN LLC, priority 2015, dated 2019).
“And” between values parts separate entries of the source, which are not always exact repeats. Equal values may be shown once.

Columns and labels:
[1] = Pharmacokinetics in mouse plasma; assay type: in vivo; conditions: for Conc. of cmpd II: individual animal
Protocol: To assess the pharmacokinetics of compound II (see Example 2) in mouse plasma, compound II was administered intravenously at a dosage of 1 mg/kg. Compound II concentration was measured at various time points up to 24 hours after administration, and the results are provided in Table 5.

[2] = target: rhFUCA1 (Homo sapiens (Human), UniProt P04066); assay: In vitro fucosidase inhibition (4MU-FUC fluorescence); assay type: biochemical; conditions: 1 ng/mL rhFUCA1, 640 nM 4MU-FUC, pH 4.5, 37° C., 30 minutes
rhFUCA1, sequence (P04066 32-466): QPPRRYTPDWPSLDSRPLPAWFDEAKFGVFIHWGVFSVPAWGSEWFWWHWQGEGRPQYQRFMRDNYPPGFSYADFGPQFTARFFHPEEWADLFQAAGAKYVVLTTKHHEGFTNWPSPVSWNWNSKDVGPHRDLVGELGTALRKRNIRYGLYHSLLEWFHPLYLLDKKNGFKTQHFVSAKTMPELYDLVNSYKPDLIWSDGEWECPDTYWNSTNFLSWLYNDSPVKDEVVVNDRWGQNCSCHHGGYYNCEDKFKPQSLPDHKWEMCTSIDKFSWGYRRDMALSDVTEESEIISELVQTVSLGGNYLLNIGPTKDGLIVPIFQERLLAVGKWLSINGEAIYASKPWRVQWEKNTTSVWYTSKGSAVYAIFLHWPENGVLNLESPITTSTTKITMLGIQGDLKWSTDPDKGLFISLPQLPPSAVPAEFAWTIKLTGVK
Protocol: Fucosidase inhibition was assessed by preparing a reaction mixture of 50 mM phosphate-citrate pH 4.5, 5 mM MgCl2, 640 nM 4-methylumbelliferyl-alpha-L-fucopyranoside (4MU-FUC), 1 ng/mL rhFUCA1 (R&D Systems), and compound II, III, or IV:
Reactions (100 μL) were incubated at 37° C. for 30 minutes and then quenched with the same volume of 600 mM citrate-carbonate buffer, pH 9. Fluorescence was measured by excitation at 360 nm and emission at 450 nm.

[3] = Biodistribution in mouse liver and colon; assay type: in vivo; conditions: for Conc. of cmpd II in colon / Mean conc. of cmpd II in colon: mouse colon; for Conc. of cmpd II in colon / Conc. of cmpd II in liver: individual animal; for Conc. of cmpd II in liver / Mean conc. of cmpd II in liver: mouse liver
Protocol: To assess the biodistribution of compound II (see Example 2) in mouse liver and colon, compound II was administered intravenously at a dosage of 1 mg/kg.

[4] = tested on: human hepatocarcinoma cell line HepG2; assay: Orthotopic model of human hepatocellular carcinoma; assay type: in vivo, nude mice
Protocol: To assess the compounds in vivo, an orthotopic model of human hepatocellular carcinoma was used. The orthotopic tumor model was generated by implanting human hepatocarcinoma cell line HepG2 into nude mice and allowing the tumor cells to grow in vivo.
The efficacy study was carried out using 10 mice per group and two dosage regimens. Compound II (see Example 2) was administered by oral gavage (po) at a dosage of 175 mg/kg once daily for 3 weeks (QDx21) or at a dosage of 87.5 mg/kg twice daily for 3 weeks (BIDx21). Vehicle (100 μL) was administered to control animals.

[5] = 87.5 mg/kg po twice daily (BIDx21), Day 0
[6] = 87.5 mg/kg po twice daily (BIDx21), Day 2
[7] = 87.5 mg/kg po twice daily (BIDx21), Day 5
[8] = 87.5 mg/kg po twice daily (BIDx21), Day 9
[9] = 87.5 mg/kg po twice daily (BIDx21), Day 12
[10] = 87.5 mg/kg po twice daily (BIDx21), Day 16
[11] = 87.5 mg/kg po twice daily (BIDx21), Day 20
[12] = 175 mg/kg po once daily (QDx21), Day 0
[13] = 175 mg/kg po once daily (QDx21), Day 2
[14] = 175 mg/kg po once daily (QDx21), Day 5
[15] = 175 mg/kg po once daily (QDx21), Day 9
[16] = 175 mg/kg po once daily (QDx21), Day 12
[17] = 175 mg/kg po once daily (QDx21), Day 16
[18] = 175 mg/kg po once daily (QDx21), Day 20

Q: Which “Conc. of cmpd II” value ([1]; IV 1 mg/kg qdx1, 5 min) does the source give for C[C@@H]1N[C@H](CNC(=O)c2cccc3c2C(=O)c2ccccc2-3)[C@@H](O)[C@H](O)[C@@H]1O [Compound II] here?
A: Its value is 247 ng/mL and 313 ng/mL and 259 ng/mL.

Q: What about the “Mean conc. of cmpd II” value ([1]; IV 1 mg/kg qdx1, 5 min) of the same compound?
A: The value was 273 ng/mL.

Q: And the “Conc. of cmpd II” value ([1]; IV 1 mg/kg qdx1, 1 h)?
A: The value was 28.7 ng/mL and 31.8 ng/mL and 34.3 ng/mL.

Q: What about the “Mean conc. of cmpd II” value ([1]; IV 1 mg/kg qdx1, 1 h) of the same compound?
A: Its value is 31.6 ng/mL.

Q: And the “Conc. of cmpd II” value ([1]; IV 1 mg/kg qdx1, 2 h)?
A: Its value is 8.58 ng/mL and 5.83 ng/mL and 9.10 ng/mL.

Q: What about the “Mean conc. of cmpd II” value ([1]; IV 1 mg/kg qdx1, 2 h) of the same compound?
A: Its value is 7.84 ng/mL.

Q: And the “Conc. of cmpd II” value ([1]; IV 1 mg/kg qdx1, 4 h)?
A: The value was 2.76 ng/mL and 1.86 ng/mL and 3.36 ng/mL.

Q: And the “Mean conc. of cmpd II” value ([1]; IV 1 mg/kg qdx1, 4 h)?
A: The value was 2.66 ng/mL.

Q: And the “Conc. of cmpd II” value ([1]; IV 1 mg/kg qdx1, 8 h)?
A: The value was 1.56 ng/mL and 1.17 ng/mL and 1.57 ng/mL.

Q: And the “Mean conc. of cmpd II” value ([1]; IV 1 mg/kg qdx1, 8 h)?
A: Its value is 1.43 ng/mL.

Q: And the “Conc. of cmpd II” value ([1]; IV 1 mg/kg qdx1, 12 h)?
A: The value was 1.04 ng/mL and 1.06 ng/mL and 2.04 ng/mL.

Q: What about the “Mean conc. of cmpd II” value ([1]; IV 1 mg/kg qdx1, 12 h) of the same compound?
A: The value was 1.38 ng/mL.

Q: And the “Conc. of cmpd II” value ([1]; IV 1 mg/kg qdx1, 24 h)?
A: The value was “BQL (Below Quantitation limit <1.0 ng/m1)”.

Q: And the IC50 [2]?
A: Its IC50 is 16 nM.

Q: And the “Conc. of cmpd II in colon” value ([3]; IV 1 mg/kg qdx1, 1 h)?
A: Its value is 1770 ng/g and 1640 ng/g and 1930 ng/g.

Q: And the “Mean conc. of cmpd II in colon” value ([3]; IV 1 mg/kg qdx1, 1 h)?
A: The value was 1780 ng/g.

Q: What about the “Conc. of cmpd II in colon” value ([3]; IV 1 mg/kg qdx1, 8 h) of the same compound?
A: Its value is 638 ng/g and 289 ng/g and 872 ng/g.

Q: And the “Mean conc. of cmpd II in colon” value ([3]; IV 1 mg/kg qdx1, 8 h)?
A: Its value is 600 ng/g.

Q: And the “Conc. of cmpd II in liver” value ([3]; IV 1 mg/kg qdx1, 1 h)?
A: The value was 298 ng/g and 301 ng/g and 188 ng/g.

Q: What about the “Mean conc. of cmpd II in liver” value ([3]; IV 1 mg/kg qdx1, 1 h) of the same compound?
A: Its value is 262 ng/g.

Q: And the “Conc. of cmpd II in liver” value ([3]; IV 1 mg/kg qdx1, 8 h)?
A: The value was 9.03 ng/g and 7.64 ng/g and 12.9 ng/g.

Q: What about the “Mean conc. of cmpd II in liver” value ([3]; IV 1 mg/kg qdx1, 8 h) of the same compound?
A: Its value is 9.86 ng/g.

Q: And the “Body Weight” value [4, 5]?
A: The value was 22.45 g.

Q: And the “Tumor Volume” value [4, 5]?
A: Its value is 212 mm^3.

Q: And the “Body Weight” value [4, 6]?
A: Its value is 22.05 g.

Q: What about the “Tumor Volume” value [4, 6] of the same compound?
A: The value was 224 mm^3.

Q: And the “Body Weight” value [4, 7]?
A: Its value is 21.93 g.

Q: And the “Tumor Volume” value [4, 7]?
A: Its value is 227 mm^3.

Q: What about the “Body Weight” value [4, 8] of the same compound?
A: The value was 21.58 g.

Q: What about the “Tumor Volume” value [4, 8] of the same compound?
A: Its value is 247 mm^3.

Q: And the “Body Weight” value [4, 9]?
A: Its value is 21.51 g.

Q: And the “Tumor Volume” value [4, 9]?
A: Its value is 270 mm^3.

Q: What about the “Body Weight” value [4, 10] of the same compound?
A: The value was 20.39 g.

Q: And the “Tumor Volume” value [4, 10]?
A: The value was 326 mm^3.

Q: What about the “Body Weight” value [4, 11] of the same compound?
A: The value was 20.86 g.

Q: What about the “Tumor Volume” value [4, 11] of the same compound?
A: The value was 320 mm^3.

Q: What about the “Body Weight” value [4, 12] of the same compound?
A: The value was 22.93 g.

Q: What about the “Tumor Volume” value [4, 12] of the same compound?
A: The value was 211 mm^3.

Q: What about the “Body Weight” value [4, 13] of the same compound?
A: Its value is 22.94 g.

Q: What about the “Tumor Volume” value [4, 13] of the same compound?
A: Its value is 238 mm^3.

Q: What about the “Body Weight” value [4, 14] of the same compound?
A: Its value is 22.28 g.

Q: And the “Tumor Volume” value [4, 14]?
A: Its value is 277 mm^3.

Q: What about the “Body Weight” value [4, 15] of the same compound?
A: The value was 22.1 g.

Q: What about the “Tumor Volume” value [4, 15] of the same compound?
A: The value was 320 mm^3.

Q: What about the “Body Weight” value [4, 16] of the same compound?
A: The value was 22.26 g.

Q: What about the “Tumor Volume” value [4, 16] of the same compound?
A: The value was 348 mm^3.

Q: What about the “Body Weight” value [4, 17] of the same compound?
A: The value was 20.58 g.

Q: What about the “Tumor Volume” value [4, 17] of the same compound?
A: Its value is 364 mm^3.

Q: What about the “Body Weight” value [4, 18] of the same compound?
A: The value was 19.98 g.

Q: And the “Tumor Volume” value [4, 18]?
A: Its value is 416 mm^3.
